Measured values taken from US12152048B2, “Nitroxoline prodrug and use thereof” (Jiangsu Yahong Meditech Co., Ltd., priority 2018, dated 2024).
Values after ≈ are worked out from the molar mass of the structure shown.

Key:
[1] = Determination of water solubility in phosphate buffer; type: physicochemical; conditions: for solubility at 24 h: aqueous buffer, thermodynamic from solid, phosphate buffer pH 7.4, room temperature
Outline: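 Thermodynamic solubility: compound concentration measured by LC/MS/MS in the vacuum filtrate after 24 h shaking at room temperature of 2 mg powder in 500 μL phosphate buffer at pH 1.2, 4.5, 6.8 or 7.4.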

[2] = Stability in mouse liver microsome; type: in vitro ADME; conditions: 2 μM, 37° C., 30 minutes
[3] = Stability in mouse plasma; type: in vitro ADME
Text: (§1) Experimental instruments: thermostatic shaker (SHA-B, Guohua Electric Appliance Co., Ltd.); centrifuge (5810R, Eppendorf); mass spectrometry (AP4000, Applied Biosystems, USA); liquid chromatography (LC-30AD, Shimadzu); sample injector (CTC Analytics AG System, CTC).
(§2) Test animals: plasma of human (batch number: BRH1343165), rat (batch number: RAT336728), mouse (batch number: MSE280000), dog (batch number: BGL99137) and monkey (batch number: PH-Monkey-20180821) are purchased from Shanghai Sixin Biological Technology Co., Ltd.
(§3) Experimental process: the compound of the present invention was dissolved in an organic solvent to obtain a 1 mM working solution. 3 μL of the working solution were added to 597 μL of pre-incubated human or rat plasma and mixed well. 50 μL of the solution were immediately taken out as the 0 minute sample. The remaining sample was incubated at 37° C., and 50 μL of sample were taken out at 15, 30, 60 and 120 minutes respectively. All the samples taken out were immediately processed to precipitate protein, and centrifuged to obtain a supermate for the determination of the compound concentration by LC/MS/MS.

Stability in dog plasma = type: in vitro ADME
Text: as §1, §2, §3

[4] = Stability in monkey plasma; type: in vitro ADME
Text: as §1, §2, §3

[5] = Stability in liver microsome, overall conclusion (species not stated); type: in vitro ADME; conditions: conclusion in words
[6] = Stability in human plasma
Text: as §1, §2, §3

[7] = Stability in dog liver microsome; conditions: 2 μM, 37° C., 30 minutes
[8] = Stability in rat liver microsome; conditions: 2 μM, 37° C., 30 minutes
Experimental: (§4) Experimental instruments: thermostatic shaker (SHA-B, Guohua Electric Appliance Co., Ltd.); centrifuge (5810R, Eppendorf); mass spectrometry (API4000, Applied Biosystems, USA); liquid chromatography (LC-30AD, Shimadzu); sample injector (CTC Analytics AG System, CTC).
(§5) Experimental process: 25 μg/mL alamethicin (Aldrich), 5 mM magnesium chloride and 0.5 mg/mL microsome (XENOTECH) were added to 100 mM phosphate buffer to obtain a coenzyme-free reaction solution. A portion of the coenzyme-free reaction solution was added with 1 mM reductive nicotinamide adenine dinucleotide phosphate (Aldrich) and 5 mM uridine diphosphate glucuronic acid (Aldrich) to obtain a coenzyme-containing reaction solution. The working solution of the compound of the present invention was added to the two reaction solutions so that the final concentration of the compound was 2 μM. Immediately after mixing well, 50 μL of the solution were taken out as the 0 minute sample, and 50 μL of the remaining sample were taken out after incubating at 37° C. for 30 minutes. All the samples taken out were immediately processed to precipitate protein, and centrifuged to obtain a supernate for the determination of the compound concentration by LC/MS/MS.

[9] = Stability in human liver microsome; conditions: 2 μM, 37° C., 30 minutes
Experimental: as §4, §5

[10] = Stability in plasma, overall conclusion (species not stated); conditions: conclusion in words

Text for Stability in rat plasma: as §1, §2, §3

Structure (SMILES) | solubility at 24 h [1] [µg/mL] | Percentage of the compound remaining in mouse liver microsome ([2]; with coenzyme) [%] | Percentage of the compound remaining in mouse liver microsome ([2]; without coenzyme) [%] | Percentage of the compound remaining in plasma (Stability in dog plasma; 0 minute) [%] | Percentage of the compound remaining in plasma (Stability in dog plasma; 37° C., 15 minutes) [%] | Percentage of the compound remaining in plasma (Stability in dog plasma; 37° C., 30 minutes) [%] | Percentage of the compound remaining in plasma (Stability in dog plasma; 37° C., 60 minutes) [%] | Percentage of the compound remaining in plasma (Stability in dog plasma; 37° C., 120 minutes) [%] | stability in microsome [5] | Percentage of the compound remaining in plasma (Stability in rat plasma; 0 minute) [%] | Percentage of the compound remaining in plasma (Stability in rat plasma; 37° C., 15 minutes) [%] | Percentage of the compound remaining in plasma (Stability in rat plasma; 37° C., 30 minutes) [%] | Percentage of the compound remaining in plasma (Stability in rat plasma; 37° C., 60 minutes) [%] | Percentage of the compound remaining in dog liver microsome ([7]; with coenzyme) [%] | Percentage of the compound remaining in dog liver microsome ([7]; without coenzyme) [%] | Percentage of the compound remaining in rat liver microsome ([8]; with coenzyme) [%] | Percentage of the compound remaining in rat liver microsome ([8]; without coenzyme) [%] | Percentage of the compound remaining in human liver microsome ([9]; with coenzyme) [%] | Percentage of the compound remaining in human liver microsome ([9]; without coenzyme) [%] | stability in plasma [10] | other results
CN1CCN(C(=O)OCOc2ccc([N+](=O)[O-])c3cccnc23)CC1 [Compound 6, (5-nitroquinolin-8-yloxy)methyl 4-methylpiperazine-1-carboxylate] | 985 (≈ 2840 µM) | 51.08 | 116.52 | 100.0 | 111.5 | 111.9 | 114.6 | 105.9 | high stability | 100.0 | 95.5 | 98.8 | 90.2 | 38.76 | 114.53 | 75.71 | 99.73 | 109.46 | 118.37 | high stability | Percentage of the compound remaining in plasma ([3]; 0 minute): 100.0%; Percentage of the compound remaining in plasma ([3]; 37° C., 15 minutes): 97.7%; Percentage of the compound remaining in plasma ([3]; 37° C., 30 minutes): 95.4%; Percentage of the compound remaining in plasma ([3]; 37° C., 60 minutes): 98.9%; Percentage of the compound remaining in plasma ([3]; 37° C., 120 minutes): 92.1%; Percentage of the compound remaining in plasma ([4]; 0 minute): 100.0%; Percentage of the compound remaining in plasma ([4]; 37° C., 15 minutes): 98.3%; Percentage of the compound remaining in plasma ([4]; 37° C., 30 minutes): 101.1%; Percentage of the compound remaining in plasma ([4]; 37° C., 60 minutes): 91.6%; Percentage of the compound remaining in plasma ([4]; 37° C., 120 minutes): 98.9%; Percentage of the compound remaining in plasma (Stability in rat plasma; 37° C., 120 minutes): 89.4%; Percentage of the compound remaining in plasma ([6]; 0 minute): 100.0%; Percentage of the compound remaining in plasma ([6]; 37° C., 15 minutes): 97.5%; Percentage of the compound remaining in plasma ([6]; 37° C., 30 minutes): 106.0%; Percentage of the compound remaining in plasma ([6]; 37° C., 60 minutes): 95.0%; Percentage of the compound remaining in plasma ([6]; 37° C., 120 minutes): 99.3%
O=C(OCOc1ccc([N+](=O)[O-])c2cccnc12)N1CCOCC1 [Compound 7, (5-nitroquinolin-8-yloxy)methyl morpholine-4-carboxylate] | 134 (≈ 403 µM) | 55.15 | 82.50 | 100.0 | 104.0 | 107.2 | 106.5 | 101.8 | high stability | 100.0 | 94.0 | 98.6 | 95.0 | 28.07 | 83.78 | 69.51 | 90.84 | 91.44 | 96.71 | high stability | Percentage of the compound remaining in plasma ([3]; 0 minute): 100.0%; Percentage of the compound remaining in plasma ([3]; 37° C., 15 minutes): 98.5%; Percentage of the compound remaining in plasma ([3]; 37° C., 30 minutes): 98.8%; Percentage of the compound remaining in plasma ([3]; 37° C., 60 minutes): 96.1%; Percentage of the compound remaining in plasma ([3]; 37° C., 120 minutes): 89.3%; Percentage of the compound remaining in plasma ([4]; 0 minute): 100.0%; Percentage of the compound remaining in plasma ([4]; 37° C., 15 minutes): 96.5%; Percentage of the compound remaining in plasma ([4]; 37° C., 30 minutes): 105.9%; Percentage of the compound remaining in plasma ([4]; 37° C., 60 minutes): 99.0%; Percentage of the compound remaining in plasma ([4]; 37° C., 120 minutes): 98.7%; Percentage of the compound remaining in plasma (Stability in rat plasma; 37° C., 120 minutes): 91.6%; Percentage of the compound remaining in plasma ([6]; 0 minute): 100.0%; Percentage of the compound remaining in plasma ([6]; 37° C., 15 minutes): 93.5%; Percentage of the compound remaining in plasma ([6]; 37° C., 30 minutes): 97.8%; Percentage of the compound remaining in plasma ([6]; 37° C., 60 minutes): 99.6%; Percentage of the compound remaining in plasma ([6]; 37° C., 120 minutes): 105.2%
CN(CC(O)CO)C(=O)OCOc1ccc([N+](=O)[O-])c2cccnc12 (centres unmarked) [Compound 52, (5-nitroquinolin-8-yloxy)methyl 2,3-dihydroxypropyl(methyl)carbamate] | 687 (≈ 1960 µM) | 95.16 | 105.69 |  |  |  |  |  | high stability | 100.0 | 102.5 | 90.1 | 84.6 | 85.67 | 91.82 | 101.34 | 99.39 | 102.24 | 108.46 | high stability | water solubility compared with nitroxoline ([1]; conclusion in words): increased by several times; Percentage of the compound remaining in plasma (Stability in rat plasma; 37° C., 120 minutes): 71.3%; Percentage of the compound remaining in plasma ([6]; 0 minute): 100.0%; Percentage of the compound remaining in plasma ([6]; 37° C., 15 minutes): 95.6%; Percentage of the compound remaining in plasma ([6]; 37° C., 30 minutes): 94.1%; Percentage of the compound remaining in plasma ([6]; 37° C., 60 minutes): 89.2%; Percentage of the compound remaining in plasma ([6]; 37° C., 120 minutes): 83.3%
COC(=O)CNC(=O)OCOc1ccc([N+](=O)[O-])c2cccnc12 [Compound 53, methyl 2-(((5-nitroquinolin-8-yloxy)methoxy)formamido)acetate] | 45.5 (≈ 136 µM) | 32.13 | 55.80 | 100.0 | 96.3 | 92.3 | 78.6 | 67.3 | high stability |  |  |  |  | 70.38 | 82.59 | 54.58 | 54.77 | 79.98 | 84.61 | high stability | 
